{"source": "paper PMC9814781", "about": "“Structure-based design of a dual-warhead covalent inhibitor of FGFR4” (Communications Chemistry, 2022)", "key": {"IKK-alpha(CHUK)": {"biological_target": "IKK-alpha(CHUK) (Homo sapiens, UniProt O15111)", "assay": "Kinase selectivity profiling"}, "Her4(ERBB4)": {"biological_target": "Her4(ERBB4) (Homo sapiens, UniProt Q15303)", "assay": "Kinase selectivity profiling"}, "YSK1": {"biological_target": "YSK1 (Homo sapiens, UniProt O00506)", "assay": "Kinase selectivity profiling"}, "CDK7/CycH/MAT1": {"biological_target": "CDK7/CycH/MAT1 (Homo sapiens, UniProt P50613)", "assay": "Kinase selectivity profiling"}, "KHS": {"biological_target": "KHS (Homo sapiens, UniProt Q9Y4K4)", "assay": "Kinase selectivity profiling"}, "ABL2": {"biological_target": "ABL2 (Homo sapiens, UniProt P42684)", "assay": "Kinase selectivity profiling"}, "RSK2": {"biological_target": "RSK2 (Homo sapiens, UniProt P51812)", "assay": "Kinase selectivity profiling"}, "CDK16/CycY": {"biological_target": "CDK16/CycY (Homo sapiens, UniProt Q00536)", "assay": "Kinase selectivity profiling"}, "BRAF": {"biological_target": "BRAF (Homo sapiens, UniProt P15056)", "assay": "Kinase selectivity profiling"}, "GLK": {"biological_target": "GLK (Homo sapiens, UniProt Q8IVH8)", "assay": "Kinase selectivity profiling"}, "MAP3K3": {"biological_target": "MAP3K3 (Homo sapiens, UniProt Q99759)", "assay": "Kinase selectivity profiling"}, "PIM2": {"biological_target": "PIM2 (Homo sapiens, UniProt Q9P1W9)", "assay": "Kinase selectivity profiling"}, "GSK3β": {"biological_target": "GSK3β (Homo sapiens, UniProt P49841)", "assay": "Kinase selectivity profiling"}, "HCK": {"biological_target": "HCK (Homo sapiens, UniProt P08631)", "sequence (P08631 whole entry)": "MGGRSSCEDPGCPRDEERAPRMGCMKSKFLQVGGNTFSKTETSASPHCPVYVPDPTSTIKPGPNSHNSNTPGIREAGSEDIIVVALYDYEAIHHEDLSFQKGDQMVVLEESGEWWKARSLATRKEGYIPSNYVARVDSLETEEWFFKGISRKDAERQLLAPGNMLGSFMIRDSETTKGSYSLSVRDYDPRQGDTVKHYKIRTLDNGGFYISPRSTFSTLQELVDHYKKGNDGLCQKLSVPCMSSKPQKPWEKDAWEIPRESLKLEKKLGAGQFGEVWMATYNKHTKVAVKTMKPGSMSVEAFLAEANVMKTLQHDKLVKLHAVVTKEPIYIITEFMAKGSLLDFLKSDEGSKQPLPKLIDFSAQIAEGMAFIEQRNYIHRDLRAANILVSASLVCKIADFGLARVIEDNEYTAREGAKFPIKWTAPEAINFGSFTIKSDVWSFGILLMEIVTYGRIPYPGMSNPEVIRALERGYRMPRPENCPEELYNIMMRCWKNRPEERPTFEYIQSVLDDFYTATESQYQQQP", "assay": "Kinase selectivity profiling"}, "p38δ": {"biological_target": "p38δ (Homo sapiens, UniProt O15264)", "assay": "Kinase selectivity profiling"}, "AurB": {"biological_target": "AurB (Homo sapiens, UniProt Q96GD4)", "assay": "Kinase selectivity profiling"}, "NEK9": {"biological_target": "NEK9 (Homo sapiens, UniProt Q8TD19)", "assay": "Kinase selectivity profiling"}, "ROCK2": {"biological_target": "ROCK2 (Homo sapiens, UniProt O75116)", "assay": "Kinase selectivity profiling"}, "FGFR1": {"biological_target": "FGFR1 (Homo sapiens, UniProt P11362)", "assay": "Kinase selectivity profiling"}, "EPHA6": {"biological_target": "EPHA6 (Homo sapiens, UniProt Q9UF33)", "sequence (Q9UF33 23-1036)": "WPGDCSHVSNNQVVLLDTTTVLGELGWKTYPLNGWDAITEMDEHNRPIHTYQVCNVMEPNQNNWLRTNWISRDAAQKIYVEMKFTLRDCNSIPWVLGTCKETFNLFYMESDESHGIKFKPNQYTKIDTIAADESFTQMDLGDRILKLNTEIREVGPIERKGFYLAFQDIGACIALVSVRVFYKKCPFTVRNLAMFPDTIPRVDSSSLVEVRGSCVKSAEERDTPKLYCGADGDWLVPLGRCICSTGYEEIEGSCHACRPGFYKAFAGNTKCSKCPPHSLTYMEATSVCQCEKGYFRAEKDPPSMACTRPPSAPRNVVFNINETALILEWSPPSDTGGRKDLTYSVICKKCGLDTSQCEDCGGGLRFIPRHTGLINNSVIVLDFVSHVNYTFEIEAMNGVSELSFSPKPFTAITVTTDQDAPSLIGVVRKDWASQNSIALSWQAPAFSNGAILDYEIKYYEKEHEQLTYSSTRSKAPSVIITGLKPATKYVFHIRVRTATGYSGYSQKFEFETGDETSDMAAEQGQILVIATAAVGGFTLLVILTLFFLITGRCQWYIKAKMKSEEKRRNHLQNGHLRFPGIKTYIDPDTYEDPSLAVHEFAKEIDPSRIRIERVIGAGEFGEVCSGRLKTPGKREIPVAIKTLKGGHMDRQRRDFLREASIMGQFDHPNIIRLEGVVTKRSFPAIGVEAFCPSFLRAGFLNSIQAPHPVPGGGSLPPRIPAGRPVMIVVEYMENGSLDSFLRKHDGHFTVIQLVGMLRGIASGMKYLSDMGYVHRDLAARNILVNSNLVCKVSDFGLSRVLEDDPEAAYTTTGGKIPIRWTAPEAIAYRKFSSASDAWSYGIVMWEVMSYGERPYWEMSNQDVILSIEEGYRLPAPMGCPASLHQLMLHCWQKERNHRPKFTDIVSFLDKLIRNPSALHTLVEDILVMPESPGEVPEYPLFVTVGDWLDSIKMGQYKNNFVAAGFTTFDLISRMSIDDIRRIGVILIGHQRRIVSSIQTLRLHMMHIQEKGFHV", "assay": "Kinase selectivity profiling"}, "TGFβR2": {"biological_target": "TGFβR2 (Homo sapiens, UniProt P37173)", "assay": "Kinase selectivity profiling"}, "DDR1": {"biological_target": "DDR1 (Homo sapiens, UniProt Q08345)", "assay": "Kinase selectivity profiling"}, "GSH reaction assay": {"assay": "GSH reaction assay", "type": "in vitro ADME", "settings": "GSH 5 mM, inhibitor 1 mM, 37°C, 10–60 min", "procedure": "GSH (5 mM) and inhibitor (1 mM) or DMSO control were mixed in equal volumes and reacted at 37°C for 10 min, 20 min, 30 min, 40 min, 50 min, and 60 min. The remaining GSH was detected with DTNB (Beyotime, China), and the absorption light was measured at 412 nm on a plate reader (Perkin-Elmer). Data were determined using the time (min) versus % of control in Origin 2018 software."}, "EPHB3": {"biological_target": "EPHB3 (Homo sapiens, UniProt P54753)", "sequence (P54753 34-998)": "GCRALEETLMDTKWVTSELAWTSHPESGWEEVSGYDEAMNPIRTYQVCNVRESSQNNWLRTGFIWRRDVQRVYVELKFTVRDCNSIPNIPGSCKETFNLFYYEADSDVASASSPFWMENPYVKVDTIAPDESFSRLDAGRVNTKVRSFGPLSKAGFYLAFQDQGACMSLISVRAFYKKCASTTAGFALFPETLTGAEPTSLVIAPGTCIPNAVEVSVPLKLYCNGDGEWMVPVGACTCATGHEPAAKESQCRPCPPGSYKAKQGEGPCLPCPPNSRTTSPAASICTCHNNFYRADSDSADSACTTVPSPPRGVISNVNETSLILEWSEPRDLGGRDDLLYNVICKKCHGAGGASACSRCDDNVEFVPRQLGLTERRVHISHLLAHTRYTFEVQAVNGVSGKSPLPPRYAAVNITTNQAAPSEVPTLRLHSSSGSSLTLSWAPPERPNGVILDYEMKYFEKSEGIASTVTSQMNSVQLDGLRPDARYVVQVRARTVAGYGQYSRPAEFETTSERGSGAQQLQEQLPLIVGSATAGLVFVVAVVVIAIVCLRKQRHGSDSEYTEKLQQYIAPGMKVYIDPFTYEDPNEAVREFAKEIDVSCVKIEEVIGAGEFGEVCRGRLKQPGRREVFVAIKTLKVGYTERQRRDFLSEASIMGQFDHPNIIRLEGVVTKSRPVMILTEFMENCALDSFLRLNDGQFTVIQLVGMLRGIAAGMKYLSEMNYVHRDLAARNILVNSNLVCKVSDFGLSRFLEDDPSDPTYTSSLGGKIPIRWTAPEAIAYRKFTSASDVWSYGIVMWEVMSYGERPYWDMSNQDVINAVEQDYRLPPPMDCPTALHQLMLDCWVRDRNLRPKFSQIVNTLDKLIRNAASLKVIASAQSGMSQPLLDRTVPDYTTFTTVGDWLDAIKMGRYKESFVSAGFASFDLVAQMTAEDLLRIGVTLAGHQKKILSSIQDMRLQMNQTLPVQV", "assay": "Kinase selectivity profiling"}, "CK1δ": {"biological_target": "CK1δ (Homo sapiens, UniProt P48730)", "sequence (P48730 whole entry)": "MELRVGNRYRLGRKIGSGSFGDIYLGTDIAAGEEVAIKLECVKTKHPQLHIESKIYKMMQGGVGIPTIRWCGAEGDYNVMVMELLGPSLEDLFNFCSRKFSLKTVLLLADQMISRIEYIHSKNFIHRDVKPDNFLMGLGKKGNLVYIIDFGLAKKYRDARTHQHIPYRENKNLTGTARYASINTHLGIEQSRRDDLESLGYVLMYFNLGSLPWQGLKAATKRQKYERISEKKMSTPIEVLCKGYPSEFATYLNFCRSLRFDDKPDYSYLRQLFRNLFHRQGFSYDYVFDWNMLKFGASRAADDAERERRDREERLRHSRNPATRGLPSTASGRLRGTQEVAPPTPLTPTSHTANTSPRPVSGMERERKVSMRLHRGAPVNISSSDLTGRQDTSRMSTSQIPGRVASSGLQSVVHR", "assay": "Kinase selectivity profiling"}, "PI3K(p120gamma)": {"biological_target": "PI3K(p120gamma) (Homo sapiens, UniProt P48736)", "sequence (P48736 whole entry)": "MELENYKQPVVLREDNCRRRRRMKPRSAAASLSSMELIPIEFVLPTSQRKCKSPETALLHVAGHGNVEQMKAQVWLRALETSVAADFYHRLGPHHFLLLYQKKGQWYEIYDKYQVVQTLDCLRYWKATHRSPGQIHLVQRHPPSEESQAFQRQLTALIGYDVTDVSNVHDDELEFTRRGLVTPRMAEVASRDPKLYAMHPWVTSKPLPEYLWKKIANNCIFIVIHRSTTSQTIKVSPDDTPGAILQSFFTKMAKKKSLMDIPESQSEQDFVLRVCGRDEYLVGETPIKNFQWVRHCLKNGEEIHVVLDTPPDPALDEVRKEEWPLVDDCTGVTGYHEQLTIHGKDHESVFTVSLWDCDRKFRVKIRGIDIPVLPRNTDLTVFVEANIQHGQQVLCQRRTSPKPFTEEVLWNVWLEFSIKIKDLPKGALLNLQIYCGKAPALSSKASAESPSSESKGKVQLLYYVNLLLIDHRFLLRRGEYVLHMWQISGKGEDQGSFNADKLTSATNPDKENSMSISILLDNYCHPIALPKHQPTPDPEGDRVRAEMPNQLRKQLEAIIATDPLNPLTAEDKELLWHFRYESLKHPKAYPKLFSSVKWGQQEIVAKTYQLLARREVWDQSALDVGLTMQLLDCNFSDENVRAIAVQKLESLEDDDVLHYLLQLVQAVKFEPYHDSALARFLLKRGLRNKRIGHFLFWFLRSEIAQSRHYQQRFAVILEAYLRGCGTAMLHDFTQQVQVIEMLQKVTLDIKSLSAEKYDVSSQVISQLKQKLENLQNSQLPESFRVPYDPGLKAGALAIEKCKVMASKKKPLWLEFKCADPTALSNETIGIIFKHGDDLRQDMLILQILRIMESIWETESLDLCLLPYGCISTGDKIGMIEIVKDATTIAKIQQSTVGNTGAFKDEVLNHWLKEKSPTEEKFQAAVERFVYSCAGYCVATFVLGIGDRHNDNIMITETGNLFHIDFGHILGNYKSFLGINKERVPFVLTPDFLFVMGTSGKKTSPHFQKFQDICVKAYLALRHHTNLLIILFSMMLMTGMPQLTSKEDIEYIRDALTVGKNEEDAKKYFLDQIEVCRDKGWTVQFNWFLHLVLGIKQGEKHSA", "assay": "Kinase selectivity profiling"}, "SGK3": {"biological_target": "SGK3 (Homo sapiens, UniProt Q96BR1)", "assay": "Kinase selectivity profiling"}, "FYNb": {"biological_target": "FYNb (Homo sapiens, UniProt P06241)", "assay": "Kinase selectivity profiling"}, "PAK1": {"biological_target": "PAK1 (Homo sapiens, UniProt Q13153)", "assay": "Kinase selectivity profiling"}, "EPHA4": {"biological_target": "EPHA4 (Homo sapiens, UniProt P54764)", "assay": "Kinase selectivity profiling"}, "TAOK1": {"biological_target": "TAOK1 (Homo sapiens, UniProt Q7L7X3)", "sequence (Q7L7X3 whole entry)": "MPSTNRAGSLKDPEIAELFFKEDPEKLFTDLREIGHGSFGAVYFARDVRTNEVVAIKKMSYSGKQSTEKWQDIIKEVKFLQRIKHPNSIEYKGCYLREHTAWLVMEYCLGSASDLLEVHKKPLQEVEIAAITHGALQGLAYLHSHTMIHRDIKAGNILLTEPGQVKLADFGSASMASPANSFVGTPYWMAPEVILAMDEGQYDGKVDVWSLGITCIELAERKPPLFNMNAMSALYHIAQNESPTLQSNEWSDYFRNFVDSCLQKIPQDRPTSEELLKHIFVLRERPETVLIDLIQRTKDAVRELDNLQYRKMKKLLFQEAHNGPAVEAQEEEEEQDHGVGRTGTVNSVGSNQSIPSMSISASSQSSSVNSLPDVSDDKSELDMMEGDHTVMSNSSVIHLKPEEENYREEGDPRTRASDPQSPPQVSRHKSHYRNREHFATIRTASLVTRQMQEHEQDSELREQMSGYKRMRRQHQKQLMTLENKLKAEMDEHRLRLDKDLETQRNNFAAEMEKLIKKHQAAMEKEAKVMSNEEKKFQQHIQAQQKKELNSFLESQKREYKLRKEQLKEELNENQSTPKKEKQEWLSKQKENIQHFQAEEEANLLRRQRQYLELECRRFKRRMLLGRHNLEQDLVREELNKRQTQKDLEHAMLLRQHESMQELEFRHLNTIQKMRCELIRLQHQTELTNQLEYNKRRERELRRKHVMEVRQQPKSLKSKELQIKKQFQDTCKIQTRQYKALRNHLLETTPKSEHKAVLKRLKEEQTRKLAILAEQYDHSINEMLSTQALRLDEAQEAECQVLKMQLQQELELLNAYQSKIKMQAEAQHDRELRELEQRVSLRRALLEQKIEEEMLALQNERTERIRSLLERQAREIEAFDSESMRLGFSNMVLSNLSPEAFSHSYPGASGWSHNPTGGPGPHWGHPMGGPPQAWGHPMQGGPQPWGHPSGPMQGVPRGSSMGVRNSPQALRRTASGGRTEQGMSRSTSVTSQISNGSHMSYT", "assay": "Kinase selectivity profiling"}, "TRKA": {"biological_target": "TRKA (Homo sapiens, UniProt P04629)", "assay": "Kinase selectivity profiling"}, "FES": {"biological_target": "FES (Homo sapiens, UniProt P07332)", "assay": "Kinase selectivity profiling"}}, "data": [{"smiles": "C=CC(=O)Nc1ccccc1Nc1ncc2c(n1)N(CCCN1CCN(C(=O)C=C)CC1)C(=O)N(c1cc(OC)cc(OC)c1)C2", "note": "[CXF-009]", "values": [{"measurement": "inhibition at 1 µM", "setting": "IKK-alpha(CHUK)", "value": 2.35, "unit": "%"}, {"measurement": "inhibition at 1 µM", "setting": "Her4(ERBB4)", "value": 0.69, "unit": "%"}, {"measurement": "inhibition at 1 µM", "setting": "YSK1", "value": -8.51, "unit": "%"}, {"measurement": "inhibition at 1 µM", "setting": "CDK7/CycH/MAT1", "value": 1.27, "unit": "%"}, {"measurement": "inhibition at 1 µM", "setting": "KHS", "value": 4.11, "unit": "%"}, {"measurement": "inhibition at 1 µM", "setting": "ABL2", "value": 1.61, "unit": "%"}, {"measurement": "inhibition at 1 µM", "setting": "RSK2", "value": 2.24, "unit": "%"}, {"measurement": "inhibition at 1 µM", "setting": "CDK16/CycY", "value": -7.9, "unit": "%"}, {"measurement": "inhibition at 1 µM", "setting": "BRAF", "value": -0.93, "unit": "%"}, {"measurement": "inhibition at 1 µM", "setting": "GLK", "value": 2.68, "unit": "%"}, {"measurement": "inhibition at 1 µM", "setting": "MAP3K3", "value": -1.62, "unit": "%"}, {"measurement": "inhibition at 1 µM", "setting": "PIM2", "value": 2.38, "unit": "%"}, {"measurement": "inhibition at 1 µM", "setting": "GSK3β", "value": -0.37, "unit": "%"}, {"measurement": "inhibition at 1 µM", "setting": "HCK", "value": -11.6, "unit": "%"}, {"measurement": "inhibition at 1 µM", "setting": "p38δ", "value": 13.9, "unit": "%"}, {"measurement": "inhibition at 1 µM", "setting": "AurB", "value": -2.47, "unit": "%"}, {"measurement": "inhibition at 1 µM", "setting": "NEK9", "value": 5.11, "unit": "%"}, {"measurement": "inhibition at 1 µM", "setting": "ROCK2", "value": -2.53, "unit": "%"}, {"measurement": "inhibition at 1 µM", "setting": "FGFR1", "value": 4.98, "unit": "%"}, {"measurement": "inhibition at 1 µM", "setting": "EPHA6", "value": 5.28, "unit": "%"}, {"measurement": "inhibition at 1 µM", "setting": "TGFβR2", "value": -10.4, "unit": "%"}, {"measurement": "inhibition at 1 µM", "setting": "DDR1", "value": -3.41, "unit": "%"}, {"measurement": "GSH reactivity (remaining GSH, DTNB)", "setting": "GSH reaction assay", "value": "slightly more reactive to GSH than PRN1371"}, {"measurement": "inhibition at 1 µM", "setting": "EPHB3", "value": -0.82, "unit": "%"}, {"measurement": "inhibition at 1 µM", "setting": "CK1δ", "value": -1.29, "unit": "%"}, {"measurement": "inhibition at 1 µM", "setting": "PI3K(p120gamma)", "value": 15, "unit": "%"}, {"measurement": "inhibition at 1 µM", "setting": "SGK3", "value": 1.58, "unit": "%"}, {"measurement": "inhibition at 1 µM", "setting": "FYNb", "value": -2.49, "unit": "%"}, {"measurement": "inhibition at 1 µM", "setting": "PAK1", "value": 3.22, "unit": "%"}, {"measurement": "inhibition at 1 µM", "setting": "EPHA4", "value": -6.83, "unit": "%"}, {"measurement": "inhibition at 1 µM", "setting": "TAOK1", "value": -0.59, "unit": "%"}, {"measurement": "inhibition at 1 µM", "setting": "TRKA", "value": 26.2, "unit": "%"}, {"measurement": "inhibition at 1 µM", "setting": "FES", "value": -7.81, "unit": "%"}]}]}
